# Results taken from patent US12612410B2 (CHILDREN'S HOSPITAL MEDICAL CENTER, priority 2020, dated 2026).
# What was measured:
# IRAK1 = biological target: T1, IRAK1 (Homo sapiens, UniProt P51617); test: RBC HotSpot Kinase Assay, IRAK1; format: biochemical; settings: isolated kinase, 33P-ATP
# T1 construct: purchased Reaction Biology (RBC), HotSpot kinase assay
# Method in brief: (§1)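 Functional radiometric activity assay: kinase + substrate + cofactors in Hepes pH 7.5/MgCl2/EGTA/Brij35/BSA/Na3VO4/DTT, 1% DMSO; cmpd preincubation 20 min RT; 33P-ATP start, 2 h RT; P81 filter-binding readout.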
# MOLM14 D835Y cells = test: MOLM14 D835Y cell viability assay (Cell Titer Glo); format: cell-based; settings: Homo sapiens, MOLM-14, 48 h
# Method: (§2) Both cell lines have activated FLT3 receptors, each of which carry additional resistance mutations in the kinase domain (D835Y and F691L, respectively).
# (§3) MOLM14 D835Y and MOLM14 F691L cells were grown in RPMI-1640 media supplemented with 20% fetal bovine serum (FBS). For viability/cytotoxicity assessments, cells were seeded into 1536-well white polystyrene tissue culture-treated Greiner plates using a Multidrop Combi dispenser (ThermoFisher), in final volume 5 μL of growth media per well, at a density of 1000 cells per well. After cell addition, 23 nL of test compound were transferred into individual wells (22 doses tested for each test compound, with a 1:2 dilution series starting at 10 μM) via a 1536 pin-tool. Bortezomib (final concentration 2.3 μM) was used as a positive control for cell cytotoxicity. Plates were incubated for 48 hours at standard incubator conditions covered by a stainless steel gasketed lid to prevent evaporation. 48 hours post compound addition, 3 μL of Cell Titer Glo (Promega) were added to each well and plates were incubated at room temperature for 15 minutes with the stainless-steel lid in place. Luminescence readings were taken using a Viewlux imager (PerkinElmer) with a 2 second exposure time per plate.
# MOLM14 F691L cells = test: MOLM14 F691L cell viability assay (Cell Titer Glo); format: cell-based; settings: Homo sapiens, MOLM-14, 48 h
# Method: as §2, §3
# IRAK4 = biological target: T2, IRAK4 (Homo sapiens, UniProt Q9NWZ3); test: RBC HotSpot Kinase Assay, IRAK4; format: biochemical; set-up: purchased Reaction Biology (RBC), HotSpot kinase assay; settings: isolated kinase, 33P-ATP
# T2 sequence (Q9NWZ3 1-460): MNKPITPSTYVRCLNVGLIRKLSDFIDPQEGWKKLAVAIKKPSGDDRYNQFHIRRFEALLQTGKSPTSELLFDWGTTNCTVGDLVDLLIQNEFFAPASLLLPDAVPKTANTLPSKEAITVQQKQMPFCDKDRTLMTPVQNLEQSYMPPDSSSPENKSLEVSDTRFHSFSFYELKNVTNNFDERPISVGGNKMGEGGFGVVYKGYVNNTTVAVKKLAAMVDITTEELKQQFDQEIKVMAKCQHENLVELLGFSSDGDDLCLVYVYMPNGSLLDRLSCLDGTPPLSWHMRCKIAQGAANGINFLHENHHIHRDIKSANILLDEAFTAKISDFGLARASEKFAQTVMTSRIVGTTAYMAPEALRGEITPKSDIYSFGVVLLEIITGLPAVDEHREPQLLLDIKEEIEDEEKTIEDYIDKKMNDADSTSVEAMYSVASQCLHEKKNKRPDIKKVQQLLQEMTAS
# Method in brief: as §1
# FLT3 = biological target: T3, FLT3 (Homo sapiens, UniProt P36888); test: RBC HotSpot Kinase Assay, FLT3; format: biochemical; set-up: purchased Reaction Biology (RBC), HotSpot kinase assay; settings: isolated kinase, 33P-ATP
# T3 sequence (P36888 27-993): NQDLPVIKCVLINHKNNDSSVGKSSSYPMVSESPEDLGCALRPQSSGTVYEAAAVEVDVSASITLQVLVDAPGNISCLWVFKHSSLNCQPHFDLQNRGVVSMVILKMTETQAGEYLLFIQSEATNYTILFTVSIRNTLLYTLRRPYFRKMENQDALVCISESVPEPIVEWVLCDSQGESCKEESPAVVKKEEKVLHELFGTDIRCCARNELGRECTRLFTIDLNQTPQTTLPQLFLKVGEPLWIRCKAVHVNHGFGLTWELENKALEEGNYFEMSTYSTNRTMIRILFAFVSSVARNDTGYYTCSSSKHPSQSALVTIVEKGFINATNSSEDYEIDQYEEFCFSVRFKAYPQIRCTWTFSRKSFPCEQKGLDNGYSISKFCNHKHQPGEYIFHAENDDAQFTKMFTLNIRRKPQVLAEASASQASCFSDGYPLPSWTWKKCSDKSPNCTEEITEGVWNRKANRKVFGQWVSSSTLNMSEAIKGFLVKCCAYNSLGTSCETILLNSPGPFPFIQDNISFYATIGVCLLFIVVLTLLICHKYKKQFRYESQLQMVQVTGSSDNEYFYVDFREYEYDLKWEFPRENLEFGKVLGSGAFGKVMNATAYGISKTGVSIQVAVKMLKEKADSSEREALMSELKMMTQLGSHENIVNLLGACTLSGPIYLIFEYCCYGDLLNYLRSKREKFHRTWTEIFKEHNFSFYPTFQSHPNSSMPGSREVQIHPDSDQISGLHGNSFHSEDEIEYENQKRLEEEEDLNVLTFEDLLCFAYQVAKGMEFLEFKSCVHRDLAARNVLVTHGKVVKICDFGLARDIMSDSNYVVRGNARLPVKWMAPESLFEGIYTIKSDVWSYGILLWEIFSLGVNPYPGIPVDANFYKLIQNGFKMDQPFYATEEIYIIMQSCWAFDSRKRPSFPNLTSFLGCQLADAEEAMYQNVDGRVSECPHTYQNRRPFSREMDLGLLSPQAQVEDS
# Method in brief: as §1
# T1 sequence (P51617 whole entry): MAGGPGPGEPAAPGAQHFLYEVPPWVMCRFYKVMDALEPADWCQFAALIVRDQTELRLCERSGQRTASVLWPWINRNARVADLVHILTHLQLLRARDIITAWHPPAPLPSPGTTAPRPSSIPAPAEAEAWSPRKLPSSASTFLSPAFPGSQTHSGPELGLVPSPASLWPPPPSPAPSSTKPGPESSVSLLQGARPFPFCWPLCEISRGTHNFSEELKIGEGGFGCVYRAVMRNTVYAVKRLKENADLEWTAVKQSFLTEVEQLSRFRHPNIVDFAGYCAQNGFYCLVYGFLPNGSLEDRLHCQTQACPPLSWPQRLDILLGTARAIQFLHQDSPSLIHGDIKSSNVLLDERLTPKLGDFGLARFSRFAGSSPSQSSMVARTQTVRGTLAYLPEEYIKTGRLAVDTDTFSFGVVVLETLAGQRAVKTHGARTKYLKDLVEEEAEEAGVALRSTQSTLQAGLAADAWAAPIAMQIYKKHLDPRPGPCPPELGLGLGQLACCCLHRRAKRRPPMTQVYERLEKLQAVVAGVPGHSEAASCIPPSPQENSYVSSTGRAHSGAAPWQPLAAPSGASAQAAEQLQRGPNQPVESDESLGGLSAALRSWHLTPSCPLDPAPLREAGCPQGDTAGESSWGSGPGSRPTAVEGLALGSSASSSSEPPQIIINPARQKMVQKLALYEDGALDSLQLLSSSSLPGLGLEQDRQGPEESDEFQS
SMILES,IC50 (IRAK1),IC50 (MOLM14 D835Y cells),IC50 (MOLM14 F691L cells),IC50 (IRAK4),IC50 (FLT3)
"F[C@H]1CCNC[C@@H]1Nc1cccc(-c2cnc3cnc(C4(C(F)(F)F)CC4)cn23)n1 [Compound 13, N-((3S,4S)-4-fluoropiperidin-3-yl)-6-(6-(1-(trifluoromethyl)cyclopropyl)imidazo[1,2-a]pyrazin-3-yl)pyridin-2-amine]",77 nM,21 nM,159 nM,5 nM,< 0.5 nM
"FC(F)c1cn2c(-c3cccc(N[C@@H]4CCCNC4)n3)cnc2cn1 [Compound 17, (R)-6-(6-(difluoromethyl)imidazo[1,2-a]pyrazin-3-yl)-N-(piperidin-3-yl)pyridin-2-amine]",288 nM,10 nM,88 nM,5 nM,< 0.5 nM
"FC(F)c1cn2c(-c3cccc(N[C@H]4CNC[C@@H]4C(F)(F)F)n3)cnc2cn1 [Compound 19, 6-(6-(difluoromethyl)imidazo[1,2-a]pyrazin-3-yl)-N-((3R,4S)-4-(trifluoromethyl)pyrrolidin-3-yl)pyridin-2-amine]",32 nM,2 nM,19 nM,< 0.5 nM,< 0.5 nM
"CC(C)(O)c1cn2c(-c3cccc(N[C@H]4CNC[C@@H]4F)n3)cnc2cn1 [Compound 28, 2-(3-(6-(((3S,4S)-4-fluoropyrrolidin-3-yl)amino)pyridin-2-yl)imidazo[1,2-a]pyrazin-6-yl)propan-2-ol]",220 nM,94 nM,502 nM,0.7 nM,< 0.5 nM
"FC(F)(F)COc1cn2c(-c3cccc(N[C@H]4CNCC45CC5)n3)cnc2cn1 [Compound 40, (R)-N-(6-(6-(2,2,2-trifluoroethoxy)imidazo[1,2-a]pyrazin-3-yl)pyridin-2-yl)-5-azaspiro[2.4]heptan-7-amine]",101 nM,23 nM,152 nM,2 nM,< 0.5 nM
"c1cc(N[C@@H]2CCCNC2)nc(-c2cnc3cnc(C4CC4)cn23)c1 [Compound 48, (R)-6-(6-cyclopropylimidazo[1,2-a]pyrazin-3-yl)-N-(piperidin-3-yl)pyridin-2-amine]",60 nM,9 nM,38 nM,3 nM,0.6 nM
"F[C@H]1CNC[C@@H]1Nc1cccc(-c2cnc3cnccn23)n1 [Compound 68, N-((3S,4S)-4-fluoropyrrolidin-3-yl)-6-(imidazo[1,2-a]pyrazin-3-yl)pyridin-2-amine]",727 nM,47 nM,473 nM,4 nM,< 0.5 nM
"FC(F)COc1cn2c(-c3cccc(N[C@@H]4CCCNC4)n3)cnc2cn1 [Compound 75, (R)-6-(6-(2,2-difluoroethoxy)imidazo[1,2-a]pyrazin-3-yl)-N-(piperidin-3-yl)pyridin-2-amine]",504 nM,15 nM,158 nM,4 nM,< 0.5 nM
"O=S1(=O)CCCN1c1cn2c(-c3cccc(N[C@H]4CNC[C@@H]4F)n3)cnc2cn1 [Compound 95, 2-(3-(6-(((3S,4S)-4-fluoropyrrolidin-3-yl)amino)pyridin-2-yl)imidazo[1,2-a]pyrazin-6-yl)isothiazolidine 1,1-dioxide]",43 nM,21 nM,193 nM,1 nM,< 0.5 nM
"O=S1(=O)CCCCN1c1cn2c(-c3nc(N[C@@H]4CCCNC4)c(F)cc3F)cnc2cn1 [Compound 101, (R)-2-(3-(3,5-difluoro-6-(piperidin-3-ylamino)pyridin-2-yl)imidazo[1,2-a]pyrazin-6-yl)-1,2-thiazinane 1,1-dioxide]",175 nM,217 nM,1540 nM,24 nM,0.9 nM
"O=S1(=O)CCCCN1c1cn2c(-c3nc(N[C@H]4CNC[C@@H]4F)c(F)cc3F)cnc2cn1 [Compound 102, 2-(3-(3,5-difluoro-6-(((3S,4S)-4-fluoropyrrolidin-3-yl)amino)pyridin-2-yl)imidazo[1,2-a]pyrazin-6-yl)-1,2-thiazinane 1,1-dioxide]",281 nM,386 nM,4330 nM,6 nM,2 nM
"O=S1(=O)CCCCN1c1cn2c(-c3nc(N[C@H]4CNCC[C@@H]4F)c(F)cc3F)cnc2cn1 [Compound 103, 2-(3-(3,5-difluoro-6-(((3S,4S)-4-fluoropiperidin-3-yl)amino)pyridin-2-yl)imidazo[1,2-a]pyrazin-6-yl)-1,2-thiazinane 1,1-dioxide]",265 nM,193 nM,1370 nM,13 nM,0.9 nM
"O=S1(=O)CCCN1c1cn2c(-c3nc(N[C@@H]4CCCNC4)c(F)cc3F)cnc2cn1 [Compound 104, (R)-2-(3-(3,5-difluoro-6-(piperidin-3-ylamino)pyridin-2-yl)imidazo[1,2-a]pyrazin-6-yl)isothiazolidine 1,1-dioxide]",9 nM,11 nM,86 nM,1 nM,< 0.5 nM
"O=S1(=O)CCCN1c1cn2c(-c3nc(N[C@H]4CNC[C@@H]4F)c(F)cc3F)cnc2cn1 [Compound 105, 2-(3-(3,5-difluoro-6-(((3S,4S)-4-fluoropyrrolidin-3-yl)amino)pyridin-2-yl)imidazo[1,2-a]pyrazin-6-yl)isothiazolidine 1,1-dioxide]",22 nM,55 nM,686 nM,1 nM,< 0.5 nM
"O=S1(=O)CCCN1c1cn2c(-c3nc(N[C@H]4CNCC[C@@H]4F)c(F)cc3F)cnc2cn1 [Compound 106, 2-(3-(3,5-difluoro-6-(((3S,4S)-4-fluoropiperidin-3-yl)amino)pyridin-2-yl)imidazo[1,2-a]pyrazin-6-yl)isothiazolidine 1,1-dioxide]",21 nM,17 nM,122 nM,3 nM,< 0.5 nM
"O=C1CCCN1c1cn2c(-c3nc(N[C@H]4CNC[C@@H]4F)c(F)cc3F)cnc2cn1 [Compound 109, 1-(3-(3,5-difluoro-6-(((3S,4S)-4-fluoropyrrolidin-3-yl)amino)pyridin-2-yl)imidazo[1,2-a]pyrazin-6-yl)pyrrolidin-2-one]",52 nM,137 nM,1930 nM,4 nM,0.7 nM
"O=C1COCCN1c1cn2c(-c3cccc(N[C@H]4CNC[C@@H]4F)n3)cnc2cn1 [Compound 110, 4-(3-(6-(((3S,4S)-4-fluoropyrrolidin-3-yl)amino)pyridin-2-yl)imidazo[1,2-a]pyrazin-6-yl)morpholin-3-one]",4240 nM,154 nM,1450 nM,98 nM,3 nM
